Patent publication US7902234B2, “Thiadiazoline derivative” (Kyowa Hakko Kirin Co., Ltd., priority 2001, dated 2011)

Tested on: HCT 116 cells
Assay: Antiproliferative activity in HCT 116 human colon cancer cells (XTT)
Format: cell-based
Details: 72 hours incubation with compound, XTT absorbance 490 nm minus 655 nm, read-out: GI50 (concentration of 50% proliferation inhibition)
Method: HCT 116 cells (ATCC No.: CCL-247) were placed on a 96-well microliter plate (Nunc, 167008) at a density of 1×10^3 cells/well. The plate was incubated in a 5% CO2 incubator at 37° C. for 24 hours, and then to the plate was added test compounds diluted stepwise to […] in total, and the plate was further incubated in a 5% CO2 incubator at 37° C. for 72 hours. To the culture medium, the XTT (sodium 3′-[1-(phenylaminocarbonyl)-3,4-tetrazolium)-bis(4-methoxy-6-nitro)benzenesulfonic acid hydrate) labeling mixture (Roche Diagnostics, 1465015) was dispensed in […] portions, then the plate was incubated in a 5% CO2 incubator at 37° C. for 1 hour, and the absorbance was measured at 490 nm and 655 nm with a microplate spectrophotometer (Bio-Rad, Model 550). The inhibitory activity against cell proliferation was shown as a concentration of 50% proliferation inhibition, GI50.
GI50 calculation method: The value (difference in absorbance) was calculated by subtracting the absorbance at 655 nm from the absorbance at 490 nm of each well. […]

CC(=O)N(C)C1=NN(C(C)=O)C(C)(c2ccccc2)S1 (centres unmarked) [Compound 7]
GI50: 0.48 µM

CC(=O)NC1=NN(C(C)=O)C(C)(c2ccccc2)S1 (centres unmarked) [Compound 1]
GI50: 1 µM
